Where a SMILES comes first, the peptide text is derived from it. [ ]: non-standard residue; d: D form. ξ: configuration not given here. ξαMeBip(2'-Et,4'-OMe) = CCc1cc(OC)ccc1-c1ccc(CC(C)(N)C(=O)O)cc1; ξBip(2'-Et-4'-OMe) = CCc1cc(OC)ccc1-c1ccc(CC(N)C(=O)O)cc1; Arg(NO2) = N=C(NCCC[C@H](N)C(=O)O)N[N+](=O)[O-]; αMePhe(2,6-F2) = C[C@](N)(Cc1c(F)cccc1F)C(=O)O; ξαMePhe(2,6-F2) = CC(N)(Cc1c(F)cccc1F)C(=O)O; αMePhe(2-F) = C[C@](N)(Cc1ccccc1F)C(=O)O; ξαMePhe(2-F) = CC(N)(Cc1ccccc1F)C(=O)O; hhPhe = N[C@@H](CCCc1ccccc1)C(=O)O; hArg = N=C(N)NCCCC[C@H](N)C(=O)O; hCit = NC(=O)NCCCC[C@H](N)C(=O)O; Cit = NC(=O)NCCC[C@H](N)C(=O)O; ξαMeM = CSCCC(C)(N)C(=O)O; Nle = CCCC[C@H](N)C(=O)O; Orn = NCCC[C@H](N)C(=O)O; Ac5c = NC1(C(=O)O)CCCC1; Aib = CC(C)(N)C(=O)O
Key:
Assay type in all cases: in vitro ADME
[1] = Stability of peptides in human liver microsomes; conditions: human, microsomes; for % degradation of peptides in 24 h when incubated with liver microsomes: 2 μM, pH 7.8
Procedure, shortened: (§1)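 Peptides at 2 μM final incubated 0–24 h at 37 °C (50 mM triethanolamine-HCl, pH 7.8) in each matrix, matrix level set to degrade ~50% PTH(1-34) in 1 h; TFA-quenched, C18 HPLC at 206 nm with ESI-MS peak identification; percent degradation from peak areas at each time point.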

[2] = Stability of peptides in simulated gastric fluid (pH 1.5; HCl, NaCl and Pepsin); conditions: pH 1.5; for % degradation of peptides in 24 h when incubated with simulated gastric fluid: 2 μM; for half-life (t1/2) in simulated gastric fluid / half-life: simulated gi fluid
[3] = Stability of peptides in human plasma; conditions: human, plasma; for metabolised at 24 h, 2 μM: pH 7.8
Procedure, shortened: as §1

[4] = Stability of peptides in simulated intestinal fluid (pH 7.5); conditions: pH 7.5; for half-life (t1/2) in simulated intestinal fluid / half-life: simulated gi fluid; for % degradation of peptides in 24 h when incubated with simulated intestinal fluid: 2 μM
Procedure, shortened: as §1

Row | Compound | half-life [1] | % degradation of peptides in 24 h when incubated with liver microsomes [1] | % degradation of peptides in 24 h when incubated with simulated gastric fluid [2] | half-life (t1/2) in simulated gastric fluid [2] | half-life [3] | metabolised at 24 h, 2 μM [3] | half-life (t1/2) in simulated intestinal fluid [4] | % degradation of peptides in 24 h when incubated with simulated intestinal fluid [4] | half-life [2] | half-life [4] | half-life (t1/2) in human plasma [3] | half-life (t1/2) in liver microsomes [1]
1 | CCCC[C@H](NC(=O)C(C)(Cc1ccccc1F)NC(=O)[C@H](CCC(N)=O)NC(=O)[C@@H](NC(=O)[C@H](CCC(=O)O)NC(=O)C(C)(C)NC(=O)[C@@H](NC(=O)C1(N)CCCC1)C(C)C)[C@@H](C)CC)C(=O)N[C@@H](Cc1c[nH]cn1)C(=O)N[C@@H](CCC(N)=O)C(=O)N[C@@H](CCCCNC(=N)N)C(=O)NC(C)(C)C(=O)N[C@@H](CCCNC(=N)N[N+](=O)[O-])C(=O)NC(C)(Cc1ccccc1F)C(N)=O (stereo partly shown) [Seq. ID. 250] (H-[Ac5c]V[Aib]EIQ[ξαMePhe(2-F)][Nle]HQ[hArg][Aib][Arg(NO2)][ξαMePhe(2-F)]-NH2) | 1 h | 80% | 14% | (8) h | 8 h | 78% | (6) h | 43% |  |  |  | 
2 | CCCC[C@H](NC(=O)[C@H](CC(C)C)NC(=O)[C@H](CCC(N)=O)NC(=O)[C@@H](NC(=O)[C@H](CCC(=O)O)NC(=O)C(C)(C)NC(=O)[C@@H](NC(=O)C(C)(C)N)C(C)C)[C@@H](C)CC)C(=O)N[C@@H](Cc1c[nH]cn1)C(=O)N[C@@H](CCC(N)=O)C(=O)N[C@@H](CCCN)C(=O)N[C@@H](C)C(=O)NC(C)(C)C(=O)NC(Cc1ccc(-c2ccc(OC)cc2CC)cc1)C(=O)N[C@@H](CCCc1ccccc1)C(N)=O (stereo partly shown) [Seq. ID. 750] (H-[Aib]V[Aib]EIQL[Nle]HQ[Orn]A[Aib][ξBip(2'-Et-4'-OMe)][hhPhe]-NH2) | 2 h | 85% | 45% |  | > 23 h | 9% |  | 00% | 4 h | > 24 h |  | 
3 | CCCC[C@H](NC(=O)[C@](C)(Cc1ccccc1F)NC(=O)[C@H](CCC(N)=O)NC(=O)[C@@H](NC(=O)[C@H](CCC(=O)O)NC(=O)C(C)(C)NC(=O)[C@@H](NC(=O)C(C)(C)N)C(C)C)[C@@H](C)CC)C(=O)N[C@@H](Cc1c[nH]cn1)C(=O)N[C@@H](CCC(N)=O)C(=O)N[C@@H](CCCCNC(=N)N)C(=O)NC(C)(C)C(=O)N[C@@H](CCCNC(N)=O)C(=O)N[C@@](C)(Cc1c(F)cccc1F)C(N)=O [Seq. ID. 142] (H-[Aib]V[Aib]EIQ[αMePhe(2-F)][Nle]HQ[hArg][Aib][Cit][αMePhe(2,6-F2)]-NH2) | 1 h | 82% | 13% | (8) h | 8 h | 80% | (6) h | 50% |  |  |  | 
4 | CCc1cc(OC)ccc1-c1ccc(CC(C)(NC(=O)[C@H](CCCCNC(=N)N)NC(=O)[C@H](C)NC(=O)[C@H](CCCCNC(=N)N)NC(=O)[C@H](CCC(N)=O)NC(=O)[C@H](Cc2c[nH]cn2)NC(=O)C(C)(CCSC)NC(=O)[C@H](CC(C)C)NC(=O)[C@H](CCC(N)=O)NC(=O)[C@@H](NC(=O)[C@H](CCC(=O)O)NC(=O)C(C)(C)NC(=O)[C@@H](NC(=O)C(C)(C)N)C(C)C)[C@@H](C)CC)C(=O)N[C@@H](CCCc2ccccc2)C(N)=O)cc1 (stereo partly shown) [Seq. ID. 910] (H-[Aib]V[Aib]EIQL[ξαMeM]HQ[hArg]A[hArg][ξαMeBip(2'-Et,4'-OMe)][hhPhe]-NH2) | 0.5 h | 100% | 100% |  |  | 77% |  | 100% | 0.5 h | 0.5 h | (9) h | 
5 | CCCC[C@H](NC(=O)C(C)(Cc1ccccc1F)NC(=O)[C@H](CCC(N)=O)NC(=O)[C@@H](NC(=O)[C@H](CCC(=O)O)NC(=O)C(C)(C)NC(=O)[C@@H](NC(=O)C1(N)CCCC1)C(C)C)[C@@H](C)CC)C(=O)N[C@@H](Cc1c[nH]cn1)C(=O)N[C@@H](CCC(N)=O)C(=O)NC(C)(C)C(=O)NC(C)(C)C(=O)NC(C)(Cc1c(F)cccc1F)C(=O)NC(C)(Cc1c(F)cccc1F)C(N)=O (stereo partly shown) [Seq. ID. 580] (H-[Ac5c]V[Aib]EIQ[ξαMePhe(2-F)][Nle]HQ[Aib][Aib][ξαMePhe(2,6-F2)][ξαMePhe(2,6-F2)]-NH2) | 1 h | 83% | 12% | (8) h | 8 h | 75% | (6) h | 46% |  |  |  | 
6 | CC[C@H](C)[C@H](NC(=O)[C@H](CCC(=O)O)NC(=O)C(C)(C)NC(=O)[C@@H](NC(=O)C(C)(C)N)C(C)C)C(=O)N[C@@H](CCC(N)=O)C(=O)N[C@@H](CC(C)C)C(=O)NC(C)(CCSC)C(=O)N[C@@H](Cc1c[nH]cn1)C(=O)N[C@@H](CCC(N)=O)C(=O)N[C@@H](CCCCNC(=N)N)C(=O)N[C@@H](C)C(=O)N[C@@H](CCCCNC(=N)N)C(=O)NC(C)(Cc1ccccc1F)C(=O)N[C@@H](CCCc1ccccc1)C(N)=O (stereo partly shown) [Seq. ID. 930] (H-[Aib]V[Aib]EIQL[ξαMeM]HQ[hArg]A[hArg][ξαMePhe(2-F)][hhPhe]-NH2) |  | 32% | 00% |  | > 24 h | 0% |  | 00% | > 24 h | > 24 h |  | (5) h
7 | CCc1cc(OC)ccc1-c1ccc(CC(NC(=O)[C@H](CCCCN)NC(=O)[C@H](C)NC(=O)[C@H](CCCCNC(=N)N)NC(=O)[C@H](CCC(N)=O)NC(=O)[C@H](Cc2c[nH]cn2)NC(=O)[C@H](CCSC)NC(=O)[C@H](CC(C)C)NC(=O)[C@H](CCC(N)=O)NC(=O)[C@@H](NC(=O)[C@H](CCC(=O)O)NC(=O)C(C)(C)NC(=O)[C@@H](NC(=O)C2(N)CCCC2)C(C)C)[C@@H](C)CC)C(N)=O)cc1 (stereo partly shown) [Seq. ID. 650] (H-[Ac5c]V[Aib]EIQLMHQ[hArg]AK[ξBip(2'-Et-4'-OMe)]-NH2) | 1 h | 77% | 15% | (8) h | 8 h | 70% | (6) h | 41% |  |  |  | 
8 | CCCC[C@H](NC(=O)[C@H](CC(C)C)NC(=O)[C@H](CCC(N)=O)NC(=O)[C@@H](NC(=O)[C@H](CCC(=O)O)NC(=O)C(C)(C)NC(=O)[C@@H](NC(=O)C(C)(C)N)C(C)C)[C@@H](C)CC)C(=O)N[C@@H](Cc1c[nH]cn1)C(=O)N[C@@H](CCC(N)=O)C(=O)N[C@@H](CCCCNC(N)=O)C(=O)NC(C)(C)C(=O)NC(C)(C)C(=O)NC(Cc1ccc(-c2ccc(OC)cc2CC)cc1)C(=O)N[C@@H](CCCc1ccccc1)C(N)=O (stereo partly shown) [Seq. ID. 790] (H-[Aib]V[Aib]EIQL[Nle]HQ[hCit][Aib][Aib][ξBip(2'-Et-4'-OMe)][hhPhe]-NH2) | 2 h | 84% | 43% |  | > 24 h | 0% |  | 00% | 4 h | > 24 h |  | 
